From patent US9073855B2, “BCL-2 selective apoptosis-inducing agents for the treatment of cancer and immune diseases” (AbbVie Inc., priority 2008, dated 2015)

What was measured:
[1] = biological target: GST-Bcl-XL (Homo sapiens, UniProt Q07817); assay: TR-FRET binding assay, GST-Bcl-XL with F-Bak peptide probe; settings: TR-FRET Binding Affinity, GST-Bcl-XL, F-Bak peptide probe
Summary of the method: (§1)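 Compounds were serially diluted in DMSO from a 50 μM starting solution (2× the starting concentration; 10% DMSO). Plates were incubated for 3 h at room temperature, and TR-FRET was read with 340/35 nm excitation and emission at 520/525 nm (F-Bak) and 495/510 nm (Tb antibody). Ki values were calculated using Wang's competitive-binding equation.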

[2] = tested on: Canine platelets; assay: Platelet cell viability assay (platelet-rich plasma, Cell Titer Glo); format: cell-based; settings: Canis lupus familiaris, 5 h, isolated canine platelets ex vivo, five hours at 37° C.
Summary of the method: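 Isolated canine platelets were incubated ex vivo with a range of compound concentrations. After 20 min equilibration at room temperature, viability was measured by Cell Titer Glo luminescence.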

[3] = biological target: GST-Bcl-2 (Homo sapiens, UniProt P10415); assay: TR-FRET binding assay, GST-Bcl-2 with F-Bak peptide probe; settings: TR-FRET Binding Affinity, GST-Bcl-2, F-Bak peptide probe
Summary of the method: as §1

[4] = tested on: FL5.12/Bcl-2 cells; assay: FL5.12/Bcl-2 cell viability assay under IL-3 withdrawal (CellTitre Glo); format: cell-based, murine; settings: Mus musculus, IL-3 withdrawn 48 hrs, then 24 hrs with compound
Summary of the method: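 Viability measured with CellTiter-Glo after 24 h compound treatment at various concentrations, following 48 h IL-3 withdrawal (no WEHI-3B medium). Cells: prolymphocytic mouse FL5.12 line stably transfected to overexpress Bcl-2, cultured at 37 °C, 5% CO2.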

Sequence of GST-Bcl-XL (Q07817 whole entry): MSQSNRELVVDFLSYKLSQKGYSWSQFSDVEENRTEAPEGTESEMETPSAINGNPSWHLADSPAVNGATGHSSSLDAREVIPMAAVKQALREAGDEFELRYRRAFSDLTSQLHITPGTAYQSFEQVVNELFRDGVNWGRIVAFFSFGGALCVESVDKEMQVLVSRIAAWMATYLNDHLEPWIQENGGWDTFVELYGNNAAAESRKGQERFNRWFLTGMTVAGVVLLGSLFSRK
Sequence of GST-Bcl-2 (P10415 whole entry): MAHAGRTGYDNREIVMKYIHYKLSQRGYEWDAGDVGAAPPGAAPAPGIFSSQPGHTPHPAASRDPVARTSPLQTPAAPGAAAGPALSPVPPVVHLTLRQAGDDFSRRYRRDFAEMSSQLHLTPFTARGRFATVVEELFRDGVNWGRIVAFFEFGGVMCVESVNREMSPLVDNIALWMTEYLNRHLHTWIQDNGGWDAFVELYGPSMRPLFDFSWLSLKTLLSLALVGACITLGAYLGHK

## CN1CCC(Nc2ccc(S(=O)(=O)NC(=O)c3ccc(N4CCN(CC5=C(c6ccc(Cl)cc6)CC(C)(C)CC5)CC4)cc3Oc3ccc4[nH]ccc4c3)cc2S(=O)(=O)C(F)(F)Cl)CC1 [Example 74, N-({3-{[chloro(difluoro)methyl]sulfonyl}-4-[(1-methylpiperidin-4-yl)amino]phenyl}sulfonyl)-4-(4-{[2-(4-chlorophenyl)-4,4-dimethylcyclohex-1-en-1-yl]methyl}piperazin-1-yl)-2-(1H-indol-5-yloxy)benzamide]
[1]
  Ki: 25.2 nM
[2]
  EC50: 16700 nM
[3]
  Ki: 0.02 nM
[4]
  EC50: 8 nM

## O=C(NS(=O)(=O)c1ccc(NCCCN2CCCC2)c([N+](=O)[O-])c1)c1ccc(N2CCN(CC3=C(c4ccc(Cl)cc4)CCCCC3)CC2)cc1Oc1cccc2[nH]ccc12 [Example 141, 4-(4-{[2-(4-chlorophenyl)cyclohept-1-en-1-yl]methyl}piperazin-1-yl)-2-(1H-indol-4-yloxy)-N-({3-nitro-4-[(3-pyrrolidin-1-ylpropyl)amino]phenyl}sulfonyl)benzamide]
[1]
  Ki: 28.6 nM
[2]
  EC50: > 50000 nM
[3]
  Ki: 0.673 nM
[4]
  EC50: 76 nM

## CN1CCC(CNc2ccc(S(=O)(=O)NC(=O)c3ccc(N4CCN(Cc5ccccc5-c5ccc(Cl)cc5)CC4)cc3Oc3ccccc3)cc2[N+](=O)[O-])CC1 [Example 88, 4-{4-[(4′-chloro-1,1′-biphenyl-2-yl)methyl]piperazin-1-yl}-N-[(4-{[(1-methylpiperidin-4-yl)methyl]amino}-3-nitrophenyl)sulfonyl]-2-phenoxybenzamide]
[1]
  Ki: 4.64 nM
[2]
  EC50: 19900 nM
[3]
  Ki: 0.069 nM
[4]
  EC50: 32 nM

## CN(C)CCOc1cccc(-c2ccc(Cl)cc2)c1CN1CCN(c2ccc(C(=O)NS(=O)(=O)c3ccc(NCC4CCOCC4)c([N+](=O)[O-])c3)c(Oc3cccc4[nH]ccc34)c2)CC1 [Example 128, 4-[4-({4′-chloro-3-[2-(dimethylamino)ethoxy]-1,1′-biphenyl-2-yl}methyl)piperazin-1-yl]-2-(1H-indol-4-yloxy)-N-({3-nitro-4-[(tetrahydro-2H-pyran-4-ylmethyl)amino]phenyl}sulfonyl)benzamide]
[1]
  Ki: 363 nM
[2]
  EC50: > 50000 nM
[3]
  Ki: 0.051 nM
[4]
  EC50: 25 nM

## CC(C)N(CCOc1ccc(-c2ccc(Cl)cc2)c(CN2CCN(c3ccc(C(=O)NS(=O)(=O)c4ccc(NCC5CCOCC5)c([N+](=O)[O-])c4)c(Oc4ccccc4)c3)CC2)c1)C(C)C [Example 139, 4-[4-({4′-chloro-4-[2-(diisopropylamino)ethoxy]-1,1′-biphenyl-2-yl}methyl)piperazin-1-yl]-N-({3-nitro-4-[(tetrahydro-2H-pyran-4-ylmethyl)amino]phenyl}sulfonyl)-2-phenoxybenzamide]
[1]
  Ki: 10.4 nM
[2]
  EC50: 38500 nM
[3]
  Ki: 0.101 nM
[4]
  EC50: 46 nM

## CN(C)CCCNc1ccc(S(=O)(=O)NC(=O)c2ccc(N3CCN(CC4=C(c5ccc(Cl)cc5)CC(C)(C)CC4)CC3)cc2Oc2cccc3[nH]ccc23)cc1[N+](=O)[O-] [Example 57, 4-(4-{[2-(4-chlorophenyl)-4,4-dimethylcyclohex-1-en-1-yl]methyl}piperazin-1-yl)-N-[(4-{[3-(dimethylamino)propyl]amino}-3-nitrophenyl)sulfonyl]-2-(1H-indol-4-yloxy)benzamide]
[1]
  Ki: 4.67 nM
[2]
  EC50: 16800 nM
[3]
  Ki: 0.068 nM
[4]
  EC50: 16 nM

## CN1CCC(Nc2ccc(S(=O)(=O)NC(=O)c3ccc(N4CCN(CC5=C(c6ccc(Cl)cc6)CCCC5)CC4)cc3Oc3cccc4[nH]ccc34)cc2[N+](=O)[O-])CC1 [Example 149, 4-(4-{[2-(4-chlorophenyl)cyclohex-1-en-1-yl]methyl}piperazin-1-yl)-2-(1H-indol-4-yloxy)-N-({4-[(1-methylpiperidin-4-yl)amino]-3-nitrophenyl}sulfonyl)benzamide]
[1]
  Ki: > 660 nM
[2]
  EC50: 16700 nM
[3]
  Ki: 0.265 nM
[4]
  EC50: 13 nM

## CC1(C)CCC(CN2CCN(c3ccc(C(=O)NS(=O)(=O)c4ccc(NCCCN5CCCC5)c([N+](=O)[O-])c4)c(Oc4cccc5[nH]ccc45)c3)CC2)=C(c2cccc(F)c2)C1 [Example 72, 4-(4-{[2-(3-fluorophenyl)-4,4-dimethylcyclohex-1-en-1-yl]methyl}piperazin-1-yl)-2-(1H-indol-4-yloxy)-N-({3-nitro-4-[(3-pyrrolidin-1-ylpropyl)amino]phenyl}sulfonyl)benzamide]
[1]
  Ki: 52.4 nM
[2]
  EC50: > 50000 nM
[3]
  Ki: 3.02 nM
[4]
  EC50: 154 nM

## CN1CCC(Nc2ccc(S(=O)(=O)NC(=O)c3ccc(N4CCN(CC5=C(c6ccc(Cl)cc6)CCCCC5)CC4)cc3Oc3cccc4[nH]ccc34)cc2[N+](=O)[O-])CC1 [Example 147, 4-(4-{[2-(4-chlorophenyl)cyclohept-1-en-1-yl]methyl}piperazin-1-yl)-2-(1H-indol-4-yloxy)-N-({4-[(1-methylpiperidin-4-yl)amino]-3-nitrophenyl}sulfonyl)benzamide]
[1]
  Ki: > 660 nM
[2]
  EC50: 17600 nM
[3]
  Ki: 0.514 nM
[4]
  EC50: 9 nM

## CN(C)CCOc1ccc(-c2ccc(Cl)cc2)c(CN2CCN(c3ccc(C(=O)NS(=O)(=O)c4ccc(NCCCN5CCCC5)c([N+](=O)[O-])c4)c(Oc4ccccc4)c3)CC2)c1 [Example 121, 4-[4-({4′-chloro-4-[2-(dimethylamino)ethoxy]-1,1′-biphenyl-2-yl}methyl)piperazin-1-yl]-N-({3-nitro-4-[(3-pyrrolidin-1-ylpropyl)amino]phenyl}sulfonyl)-2-phenoxybenzamide]
[1]
  Ki: 0.388 nM
[2]
  EC50: 309 nM
[3]
  Ki: 0.001 nM
[4]
  EC50: 38 nM

## CN1CCC(Nc2ccc(S(=O)(=O)NC(=O)c3ccc(N4CCN(Cc5ccccc5-c5ccc(Cl)cc5)CC4)cc3Oc3ccccc3)cc2[N+](=O)[O-])CC1 [Example 89, 4-{4-[(4′-chloro-1,1′-biphenyl-2-yl)methyl]piperazin-1-yl}-N-({4-[(1-methylpiperidin-4-yl)amino]-3-nitrophenyl}sulfonyl)-2-phenoxybenzamide]
[1]
  Ki: 7.45 nM
[2]
  EC50: 32000 nM
[3]
  Ki: 0.129 nM
[4]
  EC50: 65 nM

## CN(C)CCCOc1ccc(S(=O)(=O)NC(=O)c2ccc(N3CCN(CC4=C(c5ccc(Cl)cc5)CC(C)(C)CC4)CC3)cc2Oc2ccc3[nH]ccc3c2)cc1[N+](=O)[O-] [Example 100, 4-(4-{[2-(4-chlorophenyl)-4,4-dimethylcyclohex-1-en-1-yl]methyl}piperazin-1-yl)-N-({4-[3-(dimethylamino)propoxy]-3-nitrophenyl}sulfonyl)-2-(1H-indol-5-yloxy)benzamide]
[1]
  Ki: 8.29 nM
[2]
  EC50: 31200 nM
[3]
  Ki: 0.116 nM
[4]
  EC50: 15 nM

## O=C(NS(=O)(=O)c1ccc(NCC2CCOCC2)c([N+](=O)[O-])c1)c1ccc(N2CCN(Cc3cc(OCCN4CCCC4)ccc3-c3ccc(Cl)cc3)CC2)cc1Oc1ccccc1 [Example 138, 4-(4-{[4′-chloro-4-(2-pyrrolidin-1-ylethoxy)-1,1′-biphenyl-2-yl]methyl}piperazin-1-yl)-N-({3-nitro-4-[(tetrahydro-2H-pyran-4-ylmethyl)amino]phenyl}sulfonyl)-2-phenoxybenzamide]
[1]
  Ki: 5.17 nM
[2]
  EC50: 17800 nM
[3]
  Ki: 0.009 nM
[4]
  EC50: 29 nM

## CN1CCC(CNc2ccc(S(=O)(=O)NC(=O)c3ccc(N4CCN(CC5=C(c6ccc(Cl)cc6)CC(C)(C)CC5)CC4)cc3Oc3ccc4[nH]ccc4c3)cc2[N+](=O)[O-])CC1 [Example 104, 4-(4-{[2-(4-chlorophenyl)-4,4-dimethylcyclohex-1-en-1-yl]methyl}piperazin-1-yl)-2-(1H-indol-5-yloxy)-N-[(4-{[(1-methylpiperidin-4-yl)methyl]amino}-3-nitrophenyl)sulfonyl]benzamide]
[1]
  Ki: 49.1 nM
[2]
  EC50: > 50000 nM
[3]
  Ki: 0.077 nM
[4]
  EC50: 21 nM

## CC1(C)CCC(CN2CCN(c3ccc(C(=O)NS(=O)(=O)c4ccc(NCCCN5CCCC5)c([N+](=O)[O-])c4)c(Oc4cccc5[nH]ccc45)c3)CC2)=C(c2cccc(C(F)(F)F)c2)C1 [Example 71, 4-[4-({4,4-dimethyl-2-[3-(trifluoromethyl)phenyl]cyclohex-1-en-1-yl}methyl)piperazin-1-yl]-2-(1H-indol-4-yloxy)-N-({3-nitro-4-[(3-pyrrolidin-1-ylpropyl)amino]phenyl}sulfonyl)benzamide]
[1]
  Ki: > 660 nM
[2]
  EC50: > 50000 nM
[3]
  Ki: 6.23 nM
[4]
  EC50: 460 nM

## O=C(NS(=O)(=O)c1ccc(NCC2CCOCC2)c([N+](=O)[O-])c1)c1ccc(N2CCN(Cc3cc(CN4CCCC4)ccc3-c3ccc(Cl)cc3)CC2)cc1Oc1cccc2[nH]ccc12 [Example 24, 4-(4-{[4′-chloro-4-(pyrrolidin-1-ylmethyl)-1,1′-biphenyl-2-yl]methyl}piperazin-1-yl)-2-(1H-indol-4-yloxy)-N-({3-nitro-4-[(tetrahydro-2H-pyran-4-ylmethyl)amino]phenyl}sulfonyl)benzamide]
[1]
  Ki: > 660 nM
[2]
  EC50: > 50000 nM
[3]
  Ki: 0.194 nM
[4]
  EC50: 55 nM

## CN1CCC(Nc2ccc(S(=O)(=O)NC(=O)c3ccc(N4CCN(CC5=C(c6ccc(Cl)cc6)CC(C)(C)CC5)CC4)cc3Oc3ccccc3)cc2[N+](=O)[O-])CC1 [Example 152, 4-(4-{[2-(4-chlorophenyl)-4,4-dimethylcyclohex-1-en-1-yl]methyl}piperazin-1-yl)-N-({4-[(1-methylpiperidin-4-yl)amino]-3-nitrophenyl}sulfonyl)-2-phenoxybenzamide]
[1]
  Ki: 0.412 nM
[2]
  EC50: 2660 nM
[3]
  Ki: 0.026 nM
[4]
  EC50: 9 nM
